The values below come from patent US8134015B2, “Compound inhibiting in vivo phosphorous transport and medicine containing the same” (Kyowa Hakko Kirin Co., Ltd., priority 2003, dated 2012).

The test has as its target T1, rat NaPi-2b (Rattus norvegicus, UniProt Q9JJ09).
T1 construct: expressed in transfected cells; host or cells: Xenopus oocytes injected with cRNA
T1 sequence (Q9JJ09 1-695): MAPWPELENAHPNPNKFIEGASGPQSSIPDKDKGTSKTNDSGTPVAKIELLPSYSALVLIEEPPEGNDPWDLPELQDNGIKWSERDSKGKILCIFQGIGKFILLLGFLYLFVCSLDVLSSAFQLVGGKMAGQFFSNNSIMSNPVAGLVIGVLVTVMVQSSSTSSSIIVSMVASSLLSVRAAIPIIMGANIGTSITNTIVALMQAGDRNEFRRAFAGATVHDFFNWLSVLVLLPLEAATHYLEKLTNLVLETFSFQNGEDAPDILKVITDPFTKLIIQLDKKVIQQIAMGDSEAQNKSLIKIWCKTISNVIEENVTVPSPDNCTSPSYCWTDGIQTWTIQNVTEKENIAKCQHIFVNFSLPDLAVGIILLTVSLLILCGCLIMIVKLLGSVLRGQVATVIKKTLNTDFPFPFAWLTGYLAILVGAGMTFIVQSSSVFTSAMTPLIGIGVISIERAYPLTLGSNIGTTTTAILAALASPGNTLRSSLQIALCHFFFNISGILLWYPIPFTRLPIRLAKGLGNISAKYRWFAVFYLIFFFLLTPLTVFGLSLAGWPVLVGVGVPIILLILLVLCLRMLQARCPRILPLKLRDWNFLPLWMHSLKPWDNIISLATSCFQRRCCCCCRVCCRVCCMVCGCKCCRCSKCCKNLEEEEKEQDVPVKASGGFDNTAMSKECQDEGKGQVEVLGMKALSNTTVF
Description: Sodium-dependent phosphate uptake of Xenopus oocytes which expressed NaPi-2b (32P). Type of test: cell-based. The note with it: for inhibition at 300 µM: phosphate uptake, oocytes expressing rat NaPi-2b, determined from inhibition curve; for IC50: Xenopus oocytes expressing rat NaPi-2b, 32P radioactive phosphorus, read-out: IC50 (phosphate uptake inhibitory activity). The gist of the method: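 Rat small-intestine NaPi-2b cRNA injected into Xenopus oocytes, expressed for 2 days. Sodium-dependent phosphate uptake measured with 32P; % inhibition at 300 and 100 μM taken from the same inhibition curve.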

As a reminder, the inhibition is the drop in the measured response relative to a control, in per cent. Lower therefore signals a weak effect. A word on the IC50: it is the concentration needed to halve the response being measured.

In the case of `CCN(CC)CCN(C)Cc1cccc(C(=O)Nc2ccc(Cl)cc2C(=O)N/N=C/c2ccc(OCC(=O)O)cc2)c1` [Compound 1000, (4-{[5-Chloro-2-(3-{[(2-diethylamino-ethyl)-methyl-amino]-methyl}-benzoylamino)-benzoyl]-hydrazinomethyl}-phenoxy)-acetic acid], 300 µM produced 32.1% inhibition.
As for `CCN(CC)CCN(C)Cc1cccc(C(=O)Nc2sc3c(c2C(=O)N/N=C/c2ccc(OC(F)(F)F)cc2)CCCC3)c1` [Compound 1001, 3-{[(2-Diethylamino-ethyl)-methyl-amino]-methyl}-N-[3-(4-trifluoromethoxy-benzylidene-hydrazinocarbonyl)-4,5,6,7-tetrahydro-benzo[b]thiophen-2-yl]-benzamide], the IC50 is under 3 µM.
Same read-out and setting: the figure for `CCN(CC)CCN(C)Cc1cccc(C(=O)Nc2sc3c(c2C(=O)N/N=C/c2ccc(OCCO)cc2)CCCC3)c1` [Compound 1002, 3-{[(2-Diethylamino-ethyl)-methyl-amino]-methyl}-N-{3-[4-(2-hydroxy-ethoxy)-benzylidene-hydrazinocarbonyl]-4,5,6,7-tetrahydro-benzo[b]thiophen-2-yl}-benzamide] is 2.58 µM; for `CCN(CC)CCN(C)Cc1cccc(C(=O)Nc2sc3c(c2C(=O)N/N=C(\C)c2cccc(F)c2)CCCC3)c1` [Compound 1003, 3-{[(2-Diethylamino-ethyl)-methyl-amino]-methyl}-N-{3-[1-(3-fluoro-phenyl)-ethylidene-hydrazinocarbonyl]-4,5,6,7-tetrahydro-benzo[b]thiophen-2-yl}-benzamide] it is 9.12 µM.
The molecule `O=C(Nc1ccc(Cl)cc1C(=O)N/N=C/c1cccc(F)c1)c1cnc2ccccc2n1` [Compound 1004, Quinoxaline-2-carboxylic acid [4-chloro-2-(3-fluoro-benzylidene-hydrazinocarbonyl)-phenyl]-amide] gave an inhibition at 300 µM of 34.2%.
As to `Cc1ccc(/C=N/NC(=O)c2cc(Cl)ccc2NC(=O)c2cnc3ccccc3n2)cc1C` [Compound 1005, Quinoxaline-2-carboxylic acid [4-chloro-2-(3,4-dimethyl-benzylidene-hydrazinocarbonyl)-phenyl]-amide], testing at 300 µM gave an inhibition of 59.1%.
Take `O=C(Nc1ccc(Cl)cc1C(=O)N/N=C/c1ccc(Cl)c(C(F)(F)F)c1)c1cnc2ccccc2n1` [Compound 1006, Quinoxaline-2-carboxylic acid[4-chloro-2-(4-chloro-3-trifluoromethyl-benzylidene-hydrazinocarbonyl)-phenyl]-amide]: the IC50 worked out at 6.31 µM.
Same read-out and setting: for `O=C(Nc1ccc(Cl)cc1C(=O)N/N=C/c1cccc(F)c1)c1cccc(CSCC(O)CO)c1` (stereo not shown) [Compound 1007, N-[4-Chloro-2-(3-fluoro-benzylidene-hydrazinocarbonyl)-phenyl]-3-(2,3-dihydroxy-propylsulfanylmethyl)-benzamide] the value was 0.4 µM.
Consider `O=C(Nc1ccc(Cl)cc1C(=O)N/N=C/c1ccc(Cl)c(C(F)(F)F)c1)c1cccc(CSCC(O)CO)c1` (stereo not shown) [Compound 1010, N-[4-Chloro-2-(4-chloro-3-trifluoromethyl-benzylidene-hydrazinocarbonyl)-phenyl]-3-(2,3-dihydroxy-propylsulfanylmethyl)-benzamide], for which the IC50 is 0.24 µM.
`COc1ccc(/C=N/NC(=O)c2cc(Cl)ccc2NC(=O)c2cccc(CSCC(O)CO)c2)cc1` (stereo not shown) [Compound 1011, N-[4-Chloro-2-(4-methoxy-benzylidene-hydrazinocarbonyl)-phenyl]-3-(2,3-dihydroxy-propylsulfanylmethyl)-benzamide]: the IC50 is 1.28 µM.
On the same count and under the same terms, for `O=C(Nc1ccc(Cl)cc1C(=O)N/N=C/c1ccc(OC(F)(F)F)cc1)c1cccc(CSCC(O)CO)c1` (stereo not shown) [Compound 1012, N-[4-Chloro-2-(4-trifluoromethoxy-benzylidene-hydrazinocarbonyl)-phenyl]-3-(2,3-dihydroxy-propylsulfanylmethyl)-benzamide] the value was 1.89 µM.
Consider `COCCOc1cc(NC(=O)c2cccc(CSCC(O)CO)c2)c(C(=O)N/N=C/c2cccc(F)c2)cc1OCCOC` (stereo not shown) [Compound 1013, 3-(2,3-Dihydroxy-propylsulfanylmethyl)-N-[2-(3-fluoro-benzylidene-hydrazinocarbonyl)-4,5-bis-(2-methoxy-ethoxy)-phenyl]-benzamide], for which the IC50 came out at 8.89 µM.
The molecule `COCCOc1cc(NC(=O)c2cccc(CSCC(O)CO)c2)c(C(=O)N/N=C/c2ccc(C)cc2)cc1OCCOC` (stereo not shown) [Compound 1014, N-[4,5-Bis-(2-methoxy-ethoxy)-2-(4-methyl-benzylidene-hydrazinocarbonyl)-phenyl]-3-(2,3-dihydroxy-propylsulfanylmethyl)-benzamide] came in with an inhibition at 300 µM of 55.2%.
Consider `COCCOc1cc(NC(=O)c2cccc(CSCC(O)CO)c2)c(C(=O)N/N=C/c2ccc(C)c(C)c2)cc1OCCOC` (stereo not shown) [Compound 1015, 3-(2,3-Dihydroxy-propylsulfanylmethyl)-N-[2-(3,4-dimethyl-benzylidene-hydrazinocarbonyl)-4,5-bis-(2-methoxy-ethoxy)-phenyl]-benzamide], for which the IC50 was found to be 11.1 µM.
Consider `COCCOc1cc(NC(=O)c2cccc(CSCC(O)CO)c2)c(C(=O)N/N=C/c2ccc(Cl)c(C(F)(F)F)c2)cc1OCCOC` (stereo not shown) [Compound 1016, N-[2-(4-Chloro-3-trifluoromethyl-benzylidene-hydrazinocarbonyl)-4,5-bis-(2-methoxy-ethoxy)-phenyl]-3-(2,3-dihydroxy-propylsulfanylmethyl)-benzamide], for which the IC50 turned out to be 9.23 µM.
Still for that read-out and setting: the figure for `COc1ccc(NC(=O)c2cccc(CSCC(O)CO)c2)c(C(=O)N/N=C/c2cccc(F)c2)c1` (stereo not shown) [Compound 1017, 3-(2,3-Dihydroxy-propylsulfanylmethyl)-N-[2-(3-fluoro-benzylidene-hydrazinocarbonyl)-4-methoxy-phenyl]-benzamide] is 0.87 µM; for `COc1ccc(NC(=O)c2cccc(CSCC(O)CO)c2)c(C(=O)N/N=C/c2ccc(C)cc2)c1` (stereo not shown) [Compound 1018, 3-(2,3-Dihydroxy-propylsulfanylmethyl)-N-[4-methoxy-2-(4-methyl-benzylidene-hydrazinocarbonyl)-phenyl]-benzamide] it is 0.92 µM.
`COc1ccc(NC(=O)c2cccc(CSCC(O)CO)c2)c(C(=O)N/N=C/c2ccc(C)c(C)c2)c1` (stereo not shown) [Compound 1019, 3-(2,3-Dihydroxy-propylsulfanylmethyl)-N-[2-(3,4-dimethyl-benzylidene-hydrazinocarbonyl)-4-methoxy-phenyl]-benzamide]: the IC50 was 0.41 µM.
Same read-out and setting: for `COc1ccc(/C=N/NC(=O)c2cc(OC)ccc2NC(=O)c2cccc(CSCC(O)CO)c2)cc1` (stereo not shown) [Compound 1021, 3-(2,3-Dihydroxy-propylsulfanylmethyl)-N-[4-methoxy-2-(4-methoxy-benzylidene-hydrazinocarbonyl)-phenyl]-benzamide] the value was 5.57 µM; for `CCN(CC)CCN(C)Cc1cccc(C(=O)Nc2ccc(OC)cc2C(=O)N/N=C/c2cccc(F)c2)c1` [Compound 1022, 3-{[(2-Diethylamino-ethyl)-methyl-amino]-methyl}-N-[2-(3-fluoro-benzylidene-hydrazinocarbonyl)-4-methoxy-phenyl]-benzamide], 3.23 µM.
On the same count and under the same terms, for `CCN(CC)CCN(C)Cc1cccc(C(=O)Nc2ccc(OC)cc2C(=O)N/N=C/c2ccc(Cl)c(C(F)(F)F)c2)c1` [Compound 1023, N-[2-(4-Chloro-3-trifluoromethyl-benzylidene-hydrazinocarbonyl)-4-methoxy-phenyl]-3-{[(2-diethylamino-ethyl)-methyl-amino]-methyl}-benzamide] the value was 0.99 µM.
On to `CCN(CC)CCN(C)Cc1cccc(C(=O)Nc2ccc(OC)cc2C(=O)N/N=C/c2ccc(OC)cc2)c1` [Compound 1024, 3-{[(2-Diethylamino-ethyl)-methyl-amino]-methyl}-N-[4-methoxy-2-(4-methoxy-benzylidene-hydrazinocarbonyl)-phenyl]-benzamide], for which the IC50 is 3.94 µM.
On the same count and under the same terms, the figure for `CCN(CC)CCN(C)Cc1cccc(C(=O)Nc2ccc(OCCOC)cc2C(=O)N/N=C/c2cccc(F)c2)c1` [Compound 1025, 3-{[(2-Diethylamino-ethyl)-methyl-amino]-methyl}-N-[2-(3-fluoro-benzylidene-hydrazinocarbonyl)-4-(2-methoxy-ethoxy)-phenyl]-benzamide] is 5.71 µM; for `CCN(CC)CCN(C)Cc1cccc(C(=O)Nc2ccc(OCCOC)cc2C(=O)N/N=C/c2ccc(C)cc2)c1` [Compound 1026, 3-{[(2-Diethylamino-ethyl)-methyl-amino]-methyl}-N-[4-(2-methoxy-ethoxy)-2-(4-methyl-benzylidene-hydrazinocarbonyl)-phenyl]-benzamide] it is 3.86 µM.
For the molecule `CCN(CC)CCN(C)Cc1cccc(C(=O)Nc2cc(OCCOC)c(OCCOC)cc2C(=O)N/N=C/c2cccc(F)c2)c1` [Compound 1028, 3-{[(2-Diethylamino-ethyl)-methyl-amino]-methyl}-N-[2-(3-fluoro-benzylidene-hydrazinocarbonyl)-4,5-bis-(2-methoxy-ethoxy)-phenyl]-benzamide], the IC50 was 29.1 µM.
